Data taken from PMC7893915, “Assessing cross-resistance within the pyrethroids in terms of their interactions with key cytochrome P450 enzymes and resistance in vector populations” (Parasites & Vectors, 2021).

Assays:
[1] = test system: Helicoverpa armigera; parameters: method as in PMID 17685437; details: pyrethroids with a polyfluorobenzyl group instead of the phenoxybenzyl group; ref [48]; cited from earlier work
[2] = test system: Anopheles sinensis; parameters: method as in PMID 24159535; details: resistance ratios using LC50 values from a susceptible strain; most susceptible to bifenthrin, cyfluthrin and etofenprox, in that order; ref [55]; cited from earlier work
[3] = test system: Gambiae Complex; details: ID 100156; F0, larval collection, 5/2009-4/2010, Chano, Ethiopia; WHO Bioassay 1998; ref Massebo F et al. Parasites Vectors. 2013;6; cited from earlier work
[4] = test system: Ae. aegypti; test: WHO adult susceptibility test on field samples, Ae. aegypti; format: in vivo, Aedes aegypti; details: standard diagnostic doses
From the text: The analyses conducted using data from An. gambiae (s.l.) samples were repeated using data from the An. funestus subgroup, An. arabiensis, An. coluzzii, An. funestus and An. gambiae samples (Additional file 2). The same approach was also used for susceptibility test data from Aedes albopictus and Ae. aegypti to investigate whether the same relationships could be detected in these vectors of arboviruses, as detailed in Additional file 3.
Additional File 3: Cross-resistance to pyrethroids within wild populations of Aedes vectors […]
If structural diversity within the pyrethroids is also associated with divergence in resistance within the Aedes vectors of arboviruses, this would lend weight to the findings for malaria vectors presented in the main manusc ript. Like the Anopheles vectors, target-site mutations and metabolic resistance are thought to be the main resistance mechanisms in Aedes mosquitoes. At least ten mutations in the Aedes aegypti Vgsc gene have been identified and the most widespread mutation, […]
mutations and is also associated with DDT resistance. More recently, the V1016G mutation has been found in Ae. albopictus in Viet Nam and Italy, and both this allele and the F1534C and F1534S […]
expression of cytochrome P450s has also been implicated in pyrethroid resistance within Aedes mosquitoes and there is evidence that metabolic resistance can confer cross -resistance to multiple pyrethroids. For example, over-expression of CYP9J28 is associated with metabolic resistance to […]
target site- and P450-mediated resistance in Ae. aegypti strains found variation in resistance to seven pyrethroids and hypothesised that some patterns of resistance could be linked to structural differences, but also noted that general conclusions are challenging to make without a greater number of compounds with a single modification to compare. No studies of structure activity relationships using a wide range of pyrethroids and P450s from Aedes mosquitoes have been conducted to-date, but data on resistance in wild populations are available. A wider range of pyrethroids are more typically tested by studies of resistance in Aedes vectors, compared to Anopheles vectors, although these studies are also more varied in terms of diagnostic dose, bioass ay method and life cycle stage, making comparisons across studies difficult. Here we selected studies that used a common experimental design and investigated correlations in resistance to pairs of pyrethroids mirroring part of the work on Anopheles vectors presented in the main manuscript.
We identified all instances within a public insecticide resistance database where an Aedes field sample had been subdivided among tests for different pyrethroids. We then identified the most commonly used bioassay type across the new pyrethroid dataset, which was the WHO adult susceptibility test as described for malaria vectors, and the most commonly used diagnostic dose for […]
each compound (Table S2). […]
removed. Paired results were then extracted, and the mean values for the Pearson’s correlation coefficient were calculated for each pyrethroid pair using 1,000 bootstaps in SPSS Statistics v25.
Table S5. Diagnostic doses and data volumes for each pyrethroid.
Pyrethroid Most common dose Number of data points
The number of data points available for each pyrethroid from an Ae. aegypti sample that was used to test at least one other pyrethroid, using standard WHO susceptibility tests and standard diagnostic doses, is given.

[5] = test system: An. funestus strain, FUMOZ-R; parameters: method as in PMID 26930058; details: strain with upregulated P450 levels without any target-site mutations; ref [47]; cited from earlier work

Cc1c(F)c(F)c(COC(=O)[C@@H]2[C@H](/C=C(\Cl)C(F)(F)F)C2(C)C)c(F)c1F (racemic) [tefluthrin]
effect on cross-resistance, in words [1]: overcame most of this resistance

CC1(C)C(C=C(Cl)Cl)C1C(=O)OC(C#N)c1ccc(F)c(Oc2ccccc2)c1 (stereo not drawn) [cyfluthrin]
susceptibility of larvae, rank in words [2]: most susceptible | mortality [3]: 50 | Mean percent mortality (SE) ([4]; Pair 2 cyfluthrin vs etofenprox, N 22 paired Ae. aegypti samples): 87.78 (3.56) percent | Mean percent mortality (SE) ([4]; Pair 5 permethrin vs cyfluthrin, N 79 paired Ae. aegypti samples): 89.27 (1.61) percent | Mean percent mortality (SE) ([4]; Pair 7 λ-cyhalothrin vs cyfluthrin, N 25 paired Ae. aegypti samples): 85.01 (3.81) percent | Mean percent mortality (SE) ([4]; Pair 10 deltamethrin vs cyfluthrin, N 72 paired Ae. aegypti samples): 88.58 (1.73) percent

CC1(C)[C@H](C=C(Cl)Cl)[C@H]1C(=O)OCc1c(F)c(F)cc(F)c1F [transfluthrin]
effectiveness with or without piperonyl butoxide (PBO), in words [5]: effective in the absence of the generic P450 inhibitor | effect on cross-resistance, in words [1]: overcame most of this resistance
